Literature values, collected in PubChem BioAssay AID493017.

system: WOMBAT literature affinities, multiple human targets; test: PubChem AID 493017; settings: HIV-1 P; gene HIV-1 protease

SMILES	IC50
Cc1c(O)cccc1C(=O)NC(CC(C)C)C(=O)N(Cc1ccccc1)N(CCO)C(=O)C1CCCN1C(=O)OC(C)(C)C (stereo unspecified)	5000 nM
O=C1OC2(CCCc3ccccc32)CC(O)=C1SCc1ccccc1 (stereo unspecified)	2300 nM
O=C1OC(c2ccccc2)CC(O)=C1SCCc1ccccc1 (stereo unspecified)	2100 nM
CC(C)(C)OC(=O)NC(Cc1ccccc1)C(O)C[C@]1(Cc2ccccc2)NC=C(C2c3ccccc3C3NC(=O)OC32)C1=O (stereo partly specified)	2.5 nM
CCCC1(c2ccccc2)CC(O)=C(SCCc2ccccc2)C(=O)O1 (stereo unspecified)	5100 nM
Cc1cc(SC2=C(O)CC(CCc3ccc(O)cc3)(C(C)C)OC2=O)c(C(C)(C)C)cc1OS(C)(=O)=O (stereo unspecified)	2.2 nM
CC(=O)NC(C(=O)NC(Cc1ccccc1)C(O)C(Cc1ccccc1)NC(=O)C(NC(C)=O)C(C)C)C(C)C (stereo unspecified)	12 nM
CC(C)(C)NC(=O)c1ccccc1CCC(O)Cc1ccc2ccccc2c1C(=O)NC(C)(C)C (stereo unspecified)	1100 nM
CC(C)(C)OC(=O)NC(Cc1ccccc1)C(O)CC(Cc1ccccc1)C(=O)NCC1CCCCC1 (stereo unspecified)	30000 nM
CC(=O)NC(CO)C(=O)NC(CC(C)C)C(=O)NC(CC(N)=O)C(=O)NC(Cc1ccccc1)C(O)CN1CCCC1C(=O)OC(C)(C)C (stereo unspecified)	14 nM
Cc1cc(O)cc(C)c1CNC(=O)C(Cc1ccccc1)CC(O)CN1CCN(C(=O)c2cccnc2)CC1C(=O)NC(C)(C)C (stereo unspecified)	8.2 nM
CSCCC(NC(=O)C(CO)N(Cc1ccccc1)Cc1ccccc1)C(=O)NC(C)(C)C (stereo unspecified)	2220 nM
O=C1OC(CCc2ccccc2)(c2ccccc2)CC(O)=C1SCCc1ccccc1 (stereo unspecified)	51 nM

same assay, conditions: HIV-1 RT; gene HIV-1 reverse transcriptase

SMILES	IC50
Cc1ccc2c(c1)[C@@](C#CC1CC1)(C(F)(F)F)OC(=O)N2	0.133 nM
O=C1Nc2ccc(Cl)cc2[C@@](C#CC2CC2)(C(F)(F)F)N1	31 nM
Cc1c(Sc2ccccc2)n(CC=Cc2cccnc2)c(=O)[nH]c1=O	100 nM
O=C1Nc2ccc(Cl)cc2[C@@](C#CC2CC2)(C(F)(F)F)C1OCc1ccccc1 (stereo partly specified)	440 nM
CCCOCn1c(Sc2ccccc2)c(C)c(=O)[nH]c1=O	3600 nM
CCOC(=O)c1cccn1S(=O)(=O)c1cc(C)ccc1[N+](=O)[O-]	5000 nM
CCc1c(Sc2cc(C)cc(C)c2)n(CC=Cc2ccco2)c(=O)[nH]c1=O	40 nM
COC(=O)CCCC=C(c1cc(C)c(OC)c(C(=O)OC)c1)c1cc(C)c(OC)c(C(=O)OC)c1	1000 nM
O=C1c2ccccc2C(=O)N1CCOC(=S)N(C(=O)c1cccnc1Cl)c1ccc(Cl)cc1	2000 nM
CC(C)c1c(Sc2ccccc2)n(COCc2ccccc2)c(=S)[nH]c1=O	6.8 nM
CCOCn1c(Sc2cc(C)cc(C)c2)c(CC)c(=O)[nH]c1=S	4.4 nM
CCc1c(Cc2ccccc2)n(CCOC)c(=O)[nH]c1=O	250 nM
CCCCCCCCOC(=O)c1cc2c([nH]c3ccccc32)c(-c2ccc3c(n2)C(=O)C(NC(C)=O)=CC3=O)n1	3000 nM
COC(=O)c1c(Br)c(OC)c2c(c1-c1c3c(c(OC)c(Br)c1C(=O)OC)OCO3)OCO2	1900 nM
CCOCn1c(Sc2ccccc2)c(CC)c(=O)[nH]c1=O	19 nM
CCCc1cc(=O)oc2c3c(c4c(c12)OC(C)(C)C=C4)OC(CC)C(C)C3O (stereo unspecified)	3200 nM
Cc1cc(C)cc(Sc2c(C)c(=O)[nH]c(=O)n2COCCO)c1	260 nM
CC(C)C#C[C@@]1(C(F)(F)F)NC(=O)Nc2ccc(F)c(F)c21	1520 nM

target: Estrogen receptor (Homo sapiens) (UniProt P03372); test: PubChem AID 493017; settings: WOMBAT literature affinities, multiple human targets; ERalpha; gene ESR1; NCBI gene 2099
Sequence (P03372 whole entry, looked up): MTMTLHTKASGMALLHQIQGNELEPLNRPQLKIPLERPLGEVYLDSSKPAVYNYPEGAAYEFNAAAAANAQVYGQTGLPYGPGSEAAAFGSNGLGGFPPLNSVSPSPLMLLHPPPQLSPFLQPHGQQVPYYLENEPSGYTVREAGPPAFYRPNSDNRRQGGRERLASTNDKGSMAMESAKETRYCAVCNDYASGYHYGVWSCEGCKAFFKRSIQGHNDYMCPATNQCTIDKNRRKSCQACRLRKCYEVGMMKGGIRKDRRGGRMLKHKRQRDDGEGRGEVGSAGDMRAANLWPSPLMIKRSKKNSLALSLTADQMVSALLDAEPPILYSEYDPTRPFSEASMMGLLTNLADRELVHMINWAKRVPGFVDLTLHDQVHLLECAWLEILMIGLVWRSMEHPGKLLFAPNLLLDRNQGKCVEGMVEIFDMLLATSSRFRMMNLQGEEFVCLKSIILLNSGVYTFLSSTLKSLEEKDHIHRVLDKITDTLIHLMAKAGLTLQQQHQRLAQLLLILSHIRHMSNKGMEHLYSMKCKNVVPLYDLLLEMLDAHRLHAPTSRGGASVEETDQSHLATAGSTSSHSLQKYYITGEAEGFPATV

SMILES	IC50
CCNC1=C(c2ccc(O)cc2)C(=O)c2cc(O)cc(O)c21	2700 nM
COc1ccc2c(C(=O)c3ccc(OCCN4CCCCC4)cc3)c(-c3ccc(O)cc3)sc2c1	2000 nM
Oc1ccc2nn(-c3ccccc3)c(Cl)c2c1	1330 nM
CCC(=C(c1ccccc1)c1ccnn1OCc1ccccc1)c1ccccc1	10000 nM
CCc1nc(-c2ccc(O)cc2)nc(-c2ccc(O)cc2)c1-c1ccc(O)cc1	0.63 nM
C[C@]12CCC3c4ccc(O)cc4CCC3C1CC[C@@]2(O)CCNC(=O)CBr (stereo partly specified)	1600 nM
CCc1nc(-c2ccc(O)cc2)c(-c2ccc(O)cc2)nc1CC	20.8 nM
CCC(=C(c1ccccc1)c1ccnn1OCCCN(C)C)c1ccccc1	1400 nM
CCc1c(Cc2ccccc2)nc(-c2ccc(O)cc2)nc1-c1ccc(O)cc1	2.08 nM
Oc1ccc(-n2cc3ccc(O)c(Br)c3n2)cc1	2000 nM
CCC(=C(c1ccccc1)c1cnn(OCCN(C)C)c1)c1ccccc1	2800 nM
CCC(=C(c1ccccc1)c1ccccc1)c1cnn(OCCCN(C)C)c1	10000 nM
Oc1ccc(-n2cc3ccccc3n2)cc1	2000 nM
CCNC(=O)CC1C[C@]2(C)C(O)CCC2C2CCc3cc(O)ccc3C12 (stereo partly specified)	1800 nM
CCC(=C(c1ccc(O)cc1)c1ccc(OCCN(C)CCON=Cc2ccc(O)c(C(N)=O)c2)cc1)c1ccccc1	300 nM
CCC(=C(c1ccccc1)c1cnn(OCCCN(C)C)c1)c1cccs1	200 nM
CCC(=C(c1ccccc1)c1ccnn1O)c1ccccc1	10000 nM
CCc1nc(-c2ccc(O)cc2)c(-c2ccc(O)cc2)nc1-c1ccc(O)cc1	2.38 nM
O=C(c1ccc(OCCN2CCCCC2)cc1)c1c(-c2ccc(O)cc2)sc2ccc(O)cc12	160 nM
C=C[C@]12CCC(O)CC1=CCC1C3CCC(O)[C@@]3(C)CCC12 (stereo partly specified)	2240 nM
CCCc1nc(-c2ccc(O)cc2)c(CCC)nc1-c1ccc(O)cc1	0.11 nM

same assay, conditions: WOMBAT literature affinities, multiple human targets; binding affinity Kd; ERalpha; gene ESR1; NCBI gene 2099

SMILES	Kd
CCCc1c(-c2ccc(O)cc2)nn(-c2ccc(O)cc2)c1C1CCCC1	8300 nM
CC1(C)CC(c2ccc(O)cc2)=C(c2ccc(O)cc2)CC1(C)C	2 nM
O=C1c2cc(O)ccc2C2CC1c1ccc(O)cc1C2=O	5000 nM
CCc1c(-c2ccc(O)cc2)oc(-c2ccc(O)cc2)c1-c1ccc(O)cc1	0.214 nM
CC1c2ccc(O)cc2C2CC1c1cc(O)ccc1C2C (stereo unspecified)	4290 nM
CON=Cc1ccc(-c2ccccc2)c(-c2ccccc2)c1O	2500 nM
O=c1c2cc(O)ccc2c2ccc3cc(O)ccc3c2n1-c1ccc(OCCN2CCCCC2)cc1	3000 nM
C[C@]12CCC3c4ccc(O)cc4CCC3C1C(O)CC2O (stereo partly specified)	12 nM
C[C@]12CC(O)C3c4ccc(O)cc4CCC3C1CCC2O (stereo partly specified)	16.1 nM
CCC1c2ccc(O)cc2C(C)C1c1ccc(O)cc1 (stereo unspecified)	15 nM
CCCC1C(c2ccc(O)cc2)=C(CC)c2ccc(O)cc21 (stereo unspecified)	1.67 nM
COc1ccc2c(c1)CN(c1ccc(OCCN3CCCCC3)cc1)C1=C2CCc2cc(OC)ccc21	3000 nM
CCc1c(-c2ccc(O)cc2)nn(-c2ccc(O)cc2)c1-c1ccc(O)cc1	0.83 nM

same assay, conditions: WOMBAT literature affinities, multiple human targets; binding affinity Ki; ERalpha; gene ESR1; NCBI gene 2099

SMILES	Ki
CCC1=C(c2ccc(O)cc2)C(C(=O)Nc2ccc(OCCN(C)C)cc2)c2cc(O)ccc21 (stereo unspecified)	1420 nM
Oc1ccc(-c2c(-c3ccccc3)nn3cccnc23)cc1	2000 nM
CC(C)c1cc(C(C)C)n2nc(-c3ccc(O)cc3)c(-c3cccc(O)c3)c2n1	2000 nM
Oc1ccc2c3c(sc2c1)Cc1cccc(O)c1C3c1ccc(OCCN2CCCCC2)cc1 (stereo unspecified)	2.6 nM
Oc1ccc(-c2c(-c3cccc(O)c3)nn3c(C(F)(F)F)cc(C(F)(F)F)nc23)cc1	2000 nM
Cc1nc2c(-c3ccccc3)c(-c3ccc(O)cc3)nn2c(C)c1C	2000 nM
O=C(O)c1ccc(C2=C(c3ccc(O)cc3)Cc3cc(O)ccc32)cc1	2850 nM
Oc1ccc(C2=C(c3ccccc3)c3ccc(O)cc3C2)cc1	63.3 nM
CCC(=C(Cc1ccc(OCCN2CCOCC2)cc1)c1ccccc1)c1ccccc1	2480 nM
Oc1ccc2c(c1)CCC21C=C(c2ccc(OCCN3CCCCC3)cc2)c2cc(O)ccc21 (stereo unspecified)	25.3 nM
Oc1ccc2c(c1)CCC21C=C(c2ccc(OCCN3CCCC3)cc2)c2cc(O)ccc21 (stereo unspecified)	21.4 nM
